Data on one compound can be found in patent publication US20230189805A1, “MULTI-SOLVENT INSECTICIDAL COMPOSITIONS INCLUDING SULFOXIMINE” (CLARKE MOSQUITO CONTROL PRODUCTS, INC., priority 2020, published 2023).

This data set relates to Culex sp. mosquitos. Briefly: Laboratory test of samples with and without surfactant against Culex sp. mosquitos. The class given is in vivo. Here is the method:
Various amounts of different surfactants were evaluated to determine possible impacts on efficacy. In one set of trials, different amounts of sulfoxaflor were tested with and without a surfactant (Pluronic L92 from BASF).

The mark [1] stands for this setting: sulfoxaflor 0.5 wt.%, surfactant (Pluronic L92) 20 wt.%.
[2] abbreviates: sulfoxaflor 0.5 wt.%, surfactant None.
Setting [3] is: sulfoxaflor 1 wt.%, surfactant None.

Under setting [1], `CC(c1ccc(C(F)(F)F)nc1)S(C)(=O)=NC#N` (centres unmarked) [Sulfoxaflor, sulfoxaflor] yielded a 1-hour knockdown of 2%, a 24 hour mortality of 64% and a 48 hour mortality of 92%. Under setting [2], the 1-hour knockdown stood at 0%, the 24 hour mortality stood at 27%, the 48 hour mortality was determined as 76% and the 72 hour mortality is given as 86%. Under setting [3], the 1-hour knockdown was 18%, the 24 hour mortality is on record as 62%, the 48 hour mortality was 94% and the 72 hour mortality was found to be 98%.
